The subject of one assay is myoblasts (C2C12). As to the kind of experiment: in vitro differentiation induction of myoblasts (C2C12) into skeletal muscle cells in medium containing Colon26 culture supernatant (myotube formation). As to conditions: Colon26 cells treated at 25 µM for 24 hours; 50% supernatant in horse serum-supplemented DMEM; C2C12 observed on day 9, phase-contrast microscope. The format is cell-based, Mouse. How it is done:
Mouse myoblasts (C2C12, RIKEN cell bank) and mouse colon cancer cells (Colon26, RIKEN cell bank) were used. The culture medium used was DMEM medium (Sigma-Aldrich Japan) or RPMI medium (Sigma-Aldrich Japan) supplemented with 10% fetal bovine serum (Gibco), 100 units/mL penicillin G (Sigma-Aldrich Japan) and 100 µg/mL streptomycin (Sigma-Aldrich Japan).
(§1) Colon26 cells were seeded at a concentration of 5 × 10^4 cells/cm^2 in a culture dish with a diameter of 10 mm, and cultured at 37°C, 5% CO2 to 80% to 90% confluency. The medium was then changed to a medium supplemented with 16:0 lysophosphatidylcholine (hereinafter referred to as LPC), 18:0 LPC, 16:0 phosphatidylcholine (hereinafter referred to as PC), or 18:0 PC (all manufactured by Avanti Polar Lipids) at a final concentration of 25 µM, or a medium not containing LPC or PC. The cells were cultured for another 24 hours. After the cells were washed with PBS, the medium was changed to serum-free RPMI medium, and the cells were cultured for another 48 hours. The medium was collected and centrifuged at 4°C and 3000 rpm for 20 minutes to precipitate the cellular components. The supernatant was sterile-filtered using a 0.22 µm sterile filter (Merck Millipore) and stored at -80°C until use.
C2C12 cells were cultured to 80% to 90% confluency in a 6-well culture plate. The medium was changed to DMEM medium supplemented with horse serum (Gibco, final concentration: 2%) or horse serum-supplemented DMEM medium containing 50% supernatant of one of the five types prepared in the above (2), and the cells were cultured for 9 days to induce differentiation into skeletal muscle cells. On day 9, the morphology of the cells was observed under a phase-contrast microscope.

The next assay concerns Mesenchymal OP9 cells. As to the kind of experiment: in vitro differentiation induction of mesenchymal cells (OP9) into adipocytes in medium containing Colon26 culture supernatant (Oil Red O staining). The format is cell-based. As to conditions: Colon26 cells treated at 25 µM; 10% supernatant in adipocyte differentiation medium; OP9 observed on day 7. How it is done:
as §1
Mesenchymal OP9 cells (RIKEN cell bank) were used. The culture medium used was MEM medium (Sigma-Aldrich Japan) supplemented with 20% fetal bovine serum (Gibco), 100 units/mL penicillin G (Sigma-Aldrich Japan), 100 µg/mL streptomycin (Sigma-Aldrich Japan), and 2 mM L-glutamine.
OP9 cells were seeded at a concentration of 7 × 10^3 cells/cm^2 in a 96-well culture plate and cultured to confluency. […]

A further assay relates to IL-6. As to the kind of experiment: IL-6 levels in culture supernatant of colon cancer cells (Colon26) treated with PC or PS (ELISA). The format is cell-based, mouse. As to conditions: 16:0 PC or 18:0 PC 25 µM, PS 100 µg/ml, 24 hours; then 48 hours in serum-free RPMI. As to the method:
Colon26 cells were seeded at a concentration of 5 × 10^4 cells/cm^2 in the medium used in Example 1 in a culture dish with a diameter of 10 mm, and cultured at 37°C, 5% CO2 to 80% to 90% confluency. To the culture dish, 16:0 PC or 18:0 PC was added at a final concentration of 25 µM, and PS (Larodan) was added at a final concentration of 100 µg/ml. The cells were cultured for 24 hours. After the cells were washed with PBS, the medium was changed to serum-free RPMI medium (Wako), and the cells were cultured for another 48 hours. The medium was collected and centrifuged at 4°C and 3000 rpm for 20 minutes to precipitate the cellular components. The supernatant was filtered through a 0.22 µm sterile filter to remove precipitates from the supernatant. The […] IL-6 level in the supernatant was measured using LEGEND MAX Mouse IL-6 ELISA Kit (BioLegend).
Background: In an ELISA, binding on a coated surface is turned into a signal by an enzyme label.

Assay [1] concerns tumor-bearing mice (Colon26). As to the kind of experiment: weight of epididymal fat tissue in Colon26 tumor-bearing mice, intravenous PC. The format is in vivo. As to conditions: 3 mg/kg via the tail vein every 3 or 4 days; day 36 post-transplantation. As to the method:
(§2) Mice were transplanted with Colon26 cells in the same manner as in Example 3, and one week later, divided into three groups: a non-cancer cell transplantation group (control), a cancer cell transplantation group with administration of a solvent (PBS, n = 20), and a cancer cell transplantation group with administration of PC (PC, n = 20). PC and a solvent (PBS) were administered by the same dosing schedule as that in Example 3. During the dosing period, the general conditions of the mice were observed every day. The survival rate was calculated by counting the number of dead individuals. The surviving mice were euthanized on day 36 post-transplantation of Colon26 cells, and the epididymal fat tissue was harvested to measure the weight (groups of n = 8 each). Total RNA was recovered from less than 100 mg of the epididymal fat tissue, and cDNA was synthesized and subjected to qPCR in the same manner as in Example 3 (groups of n = 2 each). The reagents and devices were the same as those used in Example 3. The primer set shown below was used to detect the Leptin gene, which is known to have the function of maintaining fat tissue. The primer set for amplification of the mouse GAPDH gene was the same as that used in Example 3.

The test system of a further assay is Atrogin-1 gene. Description: quantitative PCR of Atrogin-1 gene in muscle of Colon26 tumor-bearing mice, intravenous PC. The format is in vivo, mouse. As to conditions: 3 mg/kg via the tail vein every 3 or 4 days, day 36 post-transplantation. As to the method: (§3) Male BalB/c mice (SLC) at 8 to 9 weeks old were used. Colon26 cells were cultured to 80% to 90% confluency in the same manner as in Example 1 and suspended in PBS to a concentration of 1 × 10^6 cells/mL. Then, 100 µL of the cell suspension was subcutaneously transplanted into the right upper flank of the mice. Every 3 or 4 days, the body weight of the mice was measured, and the general conditions of the mice were observed. The tumor size [1/2(a × b^2) mm^3] was calculated by measuring the maximum diameter (a) and the minimum diameter (b) of the tumor.
(§4) Hydrogenated PC (HSPC; Avanti Polar Lipids) was dissolved in ethanol to a concentration of 50 mM and stored at -20°C until use.
(§5) We set up three groups of mice: a non-cancer cell transplantation group (control), a cancer cell transplantation group with administration of a solvent (PBS), and a cancer cell transplantation group with administration of PC (PC). […]
(§6) The mice were euthanized on day 36 post-transplantation of Colon26 cells, and the gastrocnemius and tibialis muscles were harvested to measure the weight. Twenty milligrams of each muscle tissue was homogenized using High Power Homogenizer ASG50 (AS ONE Corporation), and the total RNA was recovered using RNeasy Fibrous Mini Kit (Qiagen). cDNA was synthesized from the total RNA using PrimeScript RT reagent Kit (Takara) and subjected to quantitative PCR (qPCR). […]

The subject of assay [2] is tumor-bearing mice (Colon26). Description: muscle weight in Colon26 tumor-bearing mice, intravenous PC. The format is in vivo. As to conditions: 3 mg/kg via the tail vein every 3 or 4 days from one week after transplantation; day 36 post-transplantation. How it is done: as §3, §4, §5, §6
A further assay relates to Leptin gene. As to the kind of experiment: quantitative PCR of Leptin gene in epididymal fat tissue of Colon26 tumor-bearing mice, intravenous PC. The format is in vivo, mouse. As to conditions: 3 mg/kg via the tail vein every 3 or 4 days, day 36 post-transplantation. How it is done: as §2
Primer set for amplification of mouse Leptin gene: • sense 5'-[…]-3' (SEQ ID NO: 7), and • anti-sense 5'-GCCATCCAGGCTCTCTGG-3' (SEQ ID NO: 8).

The subject of the next assay is MuRF-1 gene. As to the kind of experiment: quantitative PCR of MuRF-1 gene in muscle of Colon26 tumor-bearing mice, intravenous PC. As to conditions: 3 mg/kg via the tail vein every 3 or 4 days, day 36 post-transplantation. The format is in vivo, mouse. As to the method:
as §3, §4, §5, §6

Assay [3] relates to tumor-bearing mice (Colon26). As to the kind of experiment: survival rate of Colon26 tumor-bearing mice, intravenous PC. The format is in vivo. As to conditions: 3 mg/kg via the tail vein every 3 or 4 days; compared with solvent (PBS) group. As to the method:
as §2

As to `CCCCCCCCCCCCCCCC(=O)OCC(O)COP(=O)([O-])OCC[N+](C)(C)C` (stereo not drawn) [16:0 LPC, 16:0 lysophosphatidylcholine], in the assay on myoblasts (C2C12), the myotube formation result is “myotube formation was observed”. Moreover, in the assay with Mesenchymal OP9 cells, the “adipocyte differentiation (Oil Red O)” value is “inhibition of adipocyte differentiation was prevented”.
`CCCCCCCCCCCCCCCC(=O)OCC(COP(=O)([O-])OCC[N+](C)(C)C)OC(=O)CCCCCCCCCCCCCCC` (stereo not drawn) [16:0 PC, 16:0 phosphatidylcholine]: the “IL-6 levels in the culture supernatant of Colon26 cells” value (“IL-6 levels in the culture supernatant” for short) in the assay on IL-6 is “direct inhibitory effect on the expression of IL-6 in cancer cells”. Moreover, in the assay with myoblasts (C2C12), the myotube formation entry is listed as “myotube formation was observed”.
As to `CCCCCCCCCCCCCCCCCC(=O)OCC(O)COP(=O)([O-])OCC[N+](C)(C)C` (stereo not drawn) [18:0 LPC], the myotube formation result in the assay with myoblasts (C2C12) is recorded as “myotube formation was observed”.
With `CCCCCCCCCCCCCCCCCC(=O)OCC(COP(=O)([O-])OCC[N+](C)(C)C)OC(=O)CCCCCCCCCCCCCCCCC` (stereo not drawn) [18:0 PC], the “IL-6 levels in the culture supernatant” value with IL-6 was “direct inhibitory effect on the expression of IL-6 in cancer cells”. Further, the myotube formation entry in the assay with myoblasts (C2C12) is listed as “myotube formation was observed”.
In the case of Hydrogenated PC, in assay [1], the “weight of the epididymal fat tissue” value is recorded as “weight loss in the fat tissue was not observed”. Besides, in the assay on Atrogin-1 gene, the “expression of the Atrogin-1 gene” value is given as “comparable to that in normal mice”. Also, in assay [2], the “weight of the gastrocnemius muscle (Gastrocnemius)” value is reported as “muscle weight loss was not observed” and the “weight of the tibialis muscle (Tibialis)” value is “muscle weight loss was not observed”. Besides, the “expression of the Leptin gene” value with Leptin gene is recorded as “comparable to that in normal mice”. Moreover, the “expression of the MuRF-1 gene” value with MuRF-1 gene is “comparable to that in normal mice”. Further, the survival rate result in [3] is recorded as “improved”.
As for phosphatidylserine [PS], the “IL-6 levels in the culture supernatant” value in the assay with IL-6 is reported as “direct inhibitory effect on the expression of IL-6 in cancer cells”.

These data come from patent publication EP4740950A1, “PROPHYLACTIC OR AMELIORATING AGENT FOR CACHEXIA” (The University of Osaka, priority 2023, dated 2025).
